Laboratory results: patent US8445636B2, “Antimicrobial and anticancer lipopeptides” (Yeda Research & Development Co. Ltd., priority 2003, dated 2013)
In brackets after ≈: the same amount, converted by molar mass. Like-named read-outs stand apart in the source and are kept apart here. One block for each compound: values may come before it. Non-standard residues stand in square brackets, D forms with d. Residues, ends and D or L forms follow the SMILES beside them. *: point of attachment. Palmitoyl = CCCCCCCCCCCCCCCC(=O)*; Lauroyl = CCCCCCCCCCCC(=O)*

Columns and labels:
Assay type in all cases: cell-based
E. coli D21 = conditions: for Minimal Inhibitory Concentration, E. coli-D21: D21, pH 7.4
[1] = test system: Acinetobacter baumannii ATCC 19606; conditions: for Minimal Inhibitory Concentration, A. baumannii ATCC 19606: ATCC 19606, pH 7.4
Protocol: (§1) The antibacterial activity of the lipopeptides was examined in sterile 96-well plates (Nunc F96 microtiter plates) in a final volume of 100 μl as follows: Aliquots (50 μl) of a suspension containing bacteria at concentration of 1×10^6 Colony-Forming Units (CFU)/ml in culture LB (Lauria broth) medium (pH 7.4 or pH 5.5) were added to 50 μl of water containing the lipopeptide in serial 2-fold dilutions in water. Adjustment of the pH was done by diluted solutions of HCl and NaOH Inhibition of growth was determined by measuring the absorbance at 600 nm with a Microplate autoreader E1309 (Bio-Tek Instruments), after an incubation time of 18-20 h at 37° C. Antibacterial activities were expressed as the minimal inhibitory concentration (MIC), the concentration at which 100% inhibition of growth was observed after 18-20 h of incubation. The bacteria used were: Escherichia coli ATCC 25922, Acinetobacter baumannii ATCC 19606, Pseudomonas aeruginosa ATCC 27853, Staphylococcus aureus ATCC 6538P, Enterococcus faecalis ATCC 29212, Enterobacter cloacae ATCC 49141. The antibacterial activity of lipopeptides was also examined against resistant bacteria: methicilin-resistant Staphylococcus aureus (MRSA) ATCC 700698 and vancomycin-resistant Enterococcus faecium (VRE) ATCC 700221. If not indicated otherwise, the bacterial growth was detected at pH 7.4.

[2] = test system: Pseudomonas aeruginosa ATCC 27853; conditions: for Minimal Inhibitory Concentration, P. aeruginosa ATCC 27853: ATCC 27853, pH 7.4
Protocol: as §1

[3] = test system: Staphylococcus aureus ATCC 6538P; conditions: for Minimal Inhibitory Concentration, S. aureus ATCC 6538P: ATCC 6538, pH 7.4
Protocol: as §1

[4] = test system: Candida albicans ATCC 10231; experiment: microbe, parasite or virus in culture
Protocol: (§2) The antifungal activity of the lipopeptides was examined in sterile 96-well plates (Nunc F96 microtiter plates) in a final volume of 200 μL as follows: 100 µl of a suspension containing fungi at a concentration of 1×10^4 Colony-Forming Units (CFU)/ml in culture medium (RPMI 1640, 0.165 M MOPS with L-glutamine, without NaHCO3) at pH 7.4 or pH 5.5 (adjustment of the pH was done by diluted solutions of HCl and NaOH) were added to 100 μl of water containing the peptide in serial 2-fold dilutions in water. The fungi were incubated in the presence of the lipopeptides for 24-48 h at 35° C. in a Binder KB115 incubator under agitation. Growth inhibition was determined by measuring the absorbance at 620 nm with a Microplate autoreader E1309 (Bio-Tek Instruments). Antifungal activity is expressed as the minimal inhibitory concentration (MIC), the concentration at which 100% inhibition of fungi growth was observed after the incubation time mentioned above. The fungi used were: Aspergillus niger ATCC 9642, Candida albicans ATCC 10231 and Cryptococcus neoformans ATCC 66031. If not indicated otherwise, the fungi growth was detected at pH 7.4.

[5] = test system: Cryptococcus neoformans ATCC MYA-422; experiment: microbe, parasite or virus in culture; conditions: ATCC MYA-422, pH 7.4; read-out: Minimal Inhibitory Concentration, Cyrptococcus neoformans (ATCC MYA-422)
[6] = test system: Aspergillus fumigatus ATCC 26430; experiment: microbe, parasite or virus in culture
[7] = test system: Escherichia coli ATCC 25922
Protocol: as §1

[8] = test system: Cryptococcus neoformans ATCC 66031; experiment: microbe, parasite or virus in culture
Protocol: as §2

[9] = ATCC 10231, pH 7.4, read-out: Minimal Inhibitory Concentration, Candida Albicans (ATCC 10231)
[10] = ATCC 26430, pH 7.4, read-out: Minimal Inhibitory Concentration, Aspergillus Fomigatus (ATCC 26430)

MIC [4, 9]: >100 µM | MIC [5]: 6.25 µM (≈ 2.4 µg/mL) | MIC [6, 10]: >100 µM
Compound: CCCCCCCCCCCCCCCC(=O)N[C@@H](CCCCN)C(N)=O [PA-K]
Minimal Inhibitory Concentration, E. coli-D21 (E. coli D21): >100 µM | Minimal Inhibitory Concentration, A. baumannii ATCC 19606 [1]: >100 µM | Minimal Inhibitory Concentration, P. aeruginosa ATCC 27853 [2]: >100 µM | Minimal Inhibitory Concentration, S. aureus ATCC 6538P [3]: >100 µM

MIC [4, 9]: >100 µM | MIC [5]: >100 µM | MIC [6, 10]: >100 µM
Compound: CCCCCCCCCCCCCCCC(=O)N[C@@H](CCCCN)C(=O)N[C@@H](CCC(=O)O)C(N)=O [PA-KE] (Palmitoyl-Lys-Glu-NH2)
Minimal Inhibitory Concentration, E. coli-D21 (E. coli D21): >100 µM | Minimal Inhibitory Concentration, A. baumannii ATCC 19606 [1]: >100 µM | Minimal Inhibitory Concentration, P. aeruginosa ATCC 27853 [2]: >100 µM | Minimal Inhibitory Concentration, S. aureus ATCC 6538P [3]: >100 µM

The next lines start with the compound.

Compound: CCCCCCCCCCCCCCCC(=O)N[C@@H](CCC(=O)O)C(=O)N[C@@H](CCCCN)C(=O)N[C@H](CCCCN)C(=O)N[C@@H](CCCCN)C(N)=O [PA-EKKK, Palmitoyl-Glu-Lys-D-Lys-Lys-NH2] (Palmitoyl-EK[dK]K-NH2)
Minimal Inhibitory Concentration, E. coli-D21 (E. coli D21): 25 µM | Minimal Inhibitory Concentration, A. baumannii ATCC 19606 [1]: >100 µM | Minimal Inhibitory Concentration, P. aeruginosa ATCC 27853 [2]: >100 µM | Minimal Inhibitory Concentration, S. aureus ATCC 6538P [3]: 12.5 µM | MIC [4, 9]: 25 µM (≈ 19.2 µg/mL) | MIC [5]: 6.25 µM (≈ 4.81 µg/mL) | MIC [6, 10]: 12.5 µM (≈ 9.61 µg/mL)

Compound: CCCCCCCCCCCCCC(=O)N[C@@H](CCCCN)C(=O)N[C@@H](CCCCN)C(=O)N[C@@H](CCCCN)C(N)=O [MYR-KKK]
Minimal Inhibitory Concentration, E. coli-D21 (E. coli D21): 25 µM | Minimal Inhibitory Concentration, A. baumannii ATCC 19606 [1]: >100 µM | Minimal Inhibitory Concentration, S. aureus ATCC 6538P [3]: 12.5 µM | MIC [4, 9]: >100 µM | MIC [5]: 12.5 µM (≈ 7.65 µg/mL) | MIC [6, 10]: 100 µM (≈ 61.2 µg/mL)

Compound: CCCCCCCCCCCC(=O)N[C@H](CC(C)C)C(=O)N[C@@H](Cc1c[nH]cn1)C(=O)N[C@@H](Cc1c[nH]cn1)C(=O)N[C@H](CC(C)C)C(=O)N[C@H](CC(C)C)C(=O)N[C@@H](Cc1c[nH]cn1)C(=O)N[C@@H](Cc1c[nH]cn1)C(=O)N[C@H](CC(C)C)C(=O)N[C@H](CC(C)C)C(=O)N[C@@H](Cc1c[nH]cn1)C(=O)N[C@@H](Cc1c[nH]cn1)C(=O)N[C@H](CC(C)C)C(N)=O [lipopeptide 26, (CH3-(CH2)10-CO-)-D-Leu-His-His-D-Leu-D-Leu-His-His-D-Leu-D-Leu-His-His-D-Leu-NH2] (Lauroyl-[dL]HH[dL][dL]HH[dL][dL]HH[dL]-NH2)
Minimal inhibitory concentrations, E. Coli D21 (E. coli D21; Table 6, pH 7.4): >100 µM | Minimal inhibitory concentrations, E. Coli D21 (E. coli D21; Table 7, pH 5.5): 100 µM (≈ 170 µg/mL) | Minimal inhibitory concentrations, A. baumannii ATCC 19606 ([1]; Table 6, pH 7.4): 100 µM (≈ 170 µg/mL) | Minimal inhibitory concentrations, A. baumannii ATCC 19606 ([1]; Table 7, pH 5.5): >100 µM | Minimal inhibitory concentrations, E. Coli ATCC 25922 ([7]; Table 6, pH 7.4): >100 µM | Minimal inhibitory concentrations, E. Coli ATCC 25922 ([7]; Table 7, pH 5.5): >100 µM | Minimal inhibitory concentrations, P. Aeruginosa ATCC 27853 ([2]; Table 6, pH 7.4): >100 µM | Minimal inhibitory concentrations, P. Aeruginosa ATCC 27853 ([2]; Table 7, pH 5.5): 100 µM (≈ 170 µg/mL) | Minimal inhibitory concentrations, S. aureus II ATCC 6538P ([3]; Table 6, pH 7.4): 100 µM (≈ 170 µg/mL) | Minimal inhibitory concentrations, S. aureus II ATCC 6538P ([3]; Table 7, pH 5.5): >100 µM | MIC ([4]; Table 12, with serum, pH 7.4, read-out: Minimal inhibitory concentrations, C. Albicans With serum): >100 µM | MIC ([4]; Table 12, without serum, pH 7.4, read-out: Minimal inhibitory concentrations, C. Albicans Without serum): >100 µM | MIC ([4]; Table 13, pH 5.5, with serum, read-out: Minimal inhibitory concentrations, C. Albicans With serum): >100 µM | MIC ([4]; Table 13, pH 5.5, without serum, read-out: Minimal inhibitory concentrations, C. Albicans Without serum): 9.375 µM (≈ 15.9 µg/mL) | MIC ([8]; Table 12, with serum, pH 7.4, read-out: Minimal inhibitory concentrations, C. Neofor. With serum): 100 µM (≈ 170 µg/mL) | MIC ([8]; Table 12, without serum, pH 7.4, read-out: Minimal inhibitory concentrations, C. Neofor. Without serum): 12.5 µM (≈ 21.3 µg/mL) | MIC ([8]; Table 13, pH 5.5, with serum, read-out: Minimal inhibitory concentrations, C. Neofor. With serum): 50 µM (≈ 85.1 µg/mL) | MIC ([8]; Table 13, pH 5.5, without serum, read-out: Minimal inhibitory concentrations, C. Neofor. Without serum): 3.125 µM (≈ 5.32 µg/mL) | MIC ([6]; Table 12, with serum, pH 7.4, read-out: Minimal inhibitory concentrations, A. Fumig. With serum): 100 µM (≈ 170 µg/mL) | MIC ([6]; Table 12, without serum, pH 7.4, read-out: Minimal inhibitory concentrations, A. Fumig. Without serum): >100 µM | MIC ([6]; Table 13, pH 5.5, with serum, read-out: Minimal inhibitory concentrations, A. Fumig. With serum): 100 µM (≈ 170 µg/mL) | MIC ([6]; Table 13, pH 5.5, without serum, read-out: Minimal inhibitory concentrations, A. Fumig. Without serum): 6.25 µM (≈ 10.6 µg/mL)
